Data taken from US20150258139A1, “METHODS FOR TREATMENT OF CANCER USING LIPOPLATIN” (REGULON, INC., priority 2012, published 2015).
Where “and” joins values, the source holds several entries; their conditions need not be identical. Equal values may be shown once. Read-outs that look alike come from different tables or passages of the source.

Assays:
[1] = tested on: F98 glioma tumor; experiment: Mean survival time of F98 glioma bearing Fischer rats, platinum drugs combined with Gamma Knife irradiation; type: in vivo
[2] = tested on: F98 glioma tumor; type: in vivo; conditions: drug alone
[3] = tested on: F98 glioma tumor
[4] = tested on: metastatic colorectal cancer; conditions: cited from earlier work
[5] = tested on: pancreatic cancer; conditions: gemcitabine alone; cited from earlier work
[6] = tested on: Nonmetastatic Castrate-Resistant Prostate Cancer; conditions: monotherapy (Ogita et al); cited from earlier work
[7] = IA + BBBD, 24 h after administration, ± SD
[8] = IA + BBBD, 24 h after administration, ± SD, listed as carboplatin
[9] = IA, 24 h after administration, ± SD
[10] = IA, 24 h after administration, ± SD, listed as carboplatin
[11] = IV, 24 h after administration, ± SD

## N.N.O=C([O-])C1(C(=O)[O-])CCC1.[Pt+2] [Carboplatin]
[1]; IA + opening of BBB + radiation 15 Gy, sham group+IR 34.5±2.2 days
  mean survival time: 38.0 ± 6.4 days
[1]; IA + radiation 15 Gy
  increase of mean survival time compared to the sham IR group: 10.7 days
[1]; IA + radiation 15 Gy, sham group+IR 34.0±6.1 days
  mean survival time: 44.7 ± 6.1 days
[2]; IA + opening BBB
  mean survival time: 33.7 ± 2.0 days
[2]; IA, sham group 22.5±0.6 days
  mean survival time: 31.0 ± 3.6 days
[2]; IV, sham group 22.6±1.2 days
  mean survival time: did not significantly increase
[3]; IA + BBBD vs IA
  increase of accumulation in cytoplasm of tumor cells by opening of the BBB: 4.7 fold
  increase of accumulation in nucleus of tumor cells by opening of the BBB: 18 fold
[3]; [7]
  Platinum in brain tumor: 987 ± 621 ng of platin/g tissue
  Platinum in cytoplasm of tumor cells: 398 ± 191 ng of platin/g tissue
  Platinum in healthy contra lateral brain: 242 ± 59 ng of platin/g tissue
  Platinum in nucleus of tumor cells: 160 ± 85 ng of platin/g tissue
[3]; [8]
  Platinum in cytoplasm of tumor cells: 398±191 ng of platin/g tissue
  Platinum in nucleus of tumor cells: 160±85 ng of platin/g tissue
[3]; IA vs IV, tumor vs contra lateral brain
  effect of the IA route on tumor uptake and specificity: improved both the tumor uptake and specificity
[3]; [9]
  Platinum in brain tumor: 469 ± 241 ng of platin/g tissue
  Platinum in cytoplasm of tumor cells: 84 ± 61 ng of platin/g tissue
  Platinum in healthy contra lateral brain: 70 ± 48 ng of platin/g tissue
  Platinum in nucleus of tumor cells: 9 ± 7 ng of platin/g tissue
[3]; [10]
  Platinum in cytoplasm of tumor cells: 84±61 ng of platin/g tissue
  Platinum in nucleus of tumor cells: 9±7 ng of platin/g tissue
[3]; IV route
  uptake in the nucleus of cancer cells: ~4 ng platinum/g tissue
[3]; [11]
  Platinum in brain tumor: 145 ± 27 ng of platin/g tissue
  Platinum in cytoplasm of tumor cells: 13 ± 4 ng of platin/g tissue
  Platinum in healthy contra lateral brain: 27 ± 2 ng of platin/g tissue
  Platinum in nucleus of tumor cells: 0.5 ± 0.8 ng of platin/g tissue

## N.N.[Cl][Pt][Cl] [Cisplatin]
[2]; IA, sham group 22.5±0.6 days
  mean survival time: 13.3 ± 0.1 days
[2]; IV, sham group 22.6±1.2 days
  mean survival time: 18.1 ± 0.9 days
[3]; rat, in vivo, iv
  Platinum in cytoplasm of tumor cells: 251 ± 48 ng of platin/g tissue
  Platinum in nucleus of tumor cells: 67 ± 14 ng of platin/g tissue
  uptake in the nucleus of cancer cells: 67±14 ng platinum/g tissue

## O=C1[O][Pt]2([NH][C@@H]3CCCC[C@H]3[NH]2)[O]C1=O [Oxaliplatin]
[2]; IA, sham group 22.5±0.6 days
  mean survival time: 22.0 ± 4.7 days
[2]; IV, sham group 22.6±1.2 days
  mean survival time: did not significantly increase
[4]; 2 small trials of first-line monotherapy (Wiseman et al)
  objective responses, % of patients: 20% and 24%
[4]; first line monotherapy, metastatic colorectal cancer patients
  response rate: 24%
[4]; monotherapy as second-line option (Wiseman et al)
  objective responses, % of patients: about 10%
[4]; monotherapy, second line, colorectal cancer, Japanese study (Boku et al)
  overall response rate: 9%
[3]; IV route
  uptake in the nucleus of cancer cells: 78±8 ng platinum/g tissue
[3]; [11]
  Platinum in cytoplasm of tumor cells: 292 ± 128 ng of platin/g tissue
  Platinum in nucleus of tumor cells: 78 ± 8 ng of platin/g tissue

## Nc1ccn([C@@H]2O[C@H](CO)[C@@H](O)C2(F)F)c(=O)n1 [gemcitabine]
[5]
  one-year survival: 17%

## Avastin®: humanized monoclonal antibody that binds to and inhibits human vascular endothelial growth factor (VEGF)
[6]
  efficacy: marginal efficacy
